Numbers after ± are expanded uncertainties.
Test: xn = mol fraction of the nth substance listed
Conditions: 273.15 K, Fluid (supercritical or subcritical phases), x1 = 0.97; for mass density: Vibrating tube method

In the case of `O=C=O` [carbon dioxide] + CO, the mass density (14050 kPa) is reported as 992.7 ± 0.8 kg/m3, the mass density (14075 kPa) is reported as 992.85 ± 0.8 kg/m3 and the mass density (14100 kPa) is reported as 992.93 ± 0.8 kg/m3. It also gave a mass density (14125 kPa) of 993.06 ± 0.8 kg/m3, a mass density (14150 kPa) of 993.17 ± 0.8 kg/m3 and a mass density (14175 kPa) of 993.26 ± 0.8 kg/m3. For the same compound, the mass density (14200 kPa) was 993.38 ± 0.8 kg/m3, the mass density (14225 kPa) was 993.5 ± 0.8 kg/m3 and the mass density (14250 kPa) was 993.58 ± 0.8 kg/m3. It also gave a mass density (14275 kPa) of 993.7 ± 0.8 kg/m3, a mass density (14300 kPa) of 993.82 ± 0.8 kg/m3 and a mass density (14325 kPa) of 993.9 ± 0.8 kg/m3. The mass density (14350 kPa) was 994 ± 0.8 kg/m3, the mass density (14375 kPa) was 994.12 ± 0.8 kg/m3 and the mass density (14400 kPa) was 994.23 ± 0.8 kg/m3. It also gave a mass density (14425 kPa) of 994.35 ± 0.8 kg/m3, a mass density (14450 kPa) of 994.42 ± 0.8 kg/m3 and a mass density (14475 kPa) of 994.54 ± 0.8 kg/m3. It also gave a mass density (14500 kPa) of 994.65 ± 0.8 kg/m3, a mass density (14525 kPa) of 994.75 ± 0.8 kg/m3 and a mass density (14550 kPa) of 994.85 ± 0.8 kg/m3. It also gave a mass density (14575 kPa) of 994.96 ± 0.8 kg/m3, a mass density (14600 kPa) of 995.07 ± 0.8 kg/m3 and a mass density (14625 kPa) of 995.18 ± 0.8 kg/m3. The mass density (14650 kPa) was 995.29 ± 0.8 kg/m3, the mass density (14675 kPa) was 995.37 ± 0.8 kg/m3 and the mass density (14700 kPa) was 995.5 ± 0.8 kg/m3. For the same compound, the mass density (14725 kPa) was 995.62 ± 0.8 kg/m3, the mass density (14750 kPa) was 995.7 ± 0.8 kg/m3 and the mass density (14775 kPa) was 995.81 ± 0.8 kg/m3. For the same compound, the mass density (14800 kPa) was 995.94 ± 0.8 kg/m3, the mass density (14825 kPa) was 996.02 ± 0.8 kg/m3 and the mass density (14850 kPa) was 996.12 ± 0.8 kg/m3. It also gave a mass density (14875 kPa) of 996.27 ± 0.8 kg/m3, a speed of sound (14900 kPa, Frequency=5 MHz, Pulse-echo method) of 688.9 ± 1 m/s and a mass density (14900 kPa) of 996.34 ± 0.8 kg/m3. It also gave a mass density (14925 kPa) of 996.43 ± 0.8 kg/m3, a mass density (14950 kPa) of 996.51 ± 0.8 kg/m3 and a mass density (14975 kPa) of 996.65 ± 0.8 kg/m3. It also gave a mass density (15000 kPa) of 996.75 ± 0.8 kg/m3, a mass density (15025 kPa) of 996.84 ± 0.8 kg/m3 and a mass density (15050 kPa) of 996.94 ± 0.8 kg/m3. It also gave a mass density (15075 kPa) of 997.08 ± 0.8 kg/m3, a mass density (15100 kPa) of 997.16 ± 0.8 kg/m3 and a mass density (15125 kPa) of 997.24 ± 0.8 kg/m3. It also gave a mass density (15150 kPa) of 997.37 ± 0.8 kg/m3, a mass density (15175 kPa) of 997.49 ± 0.8 kg/m3 and a mass density (15200 kPa) of 997.57 ± 0.8 kg/m3. It also gave a mass density (15225 kPa) of 997.66 ± 0.8 kg/m3, a mass density (15250 kPa) of 997.8 ± 0.8 kg/m3 and a mass density (15275 kPa) of 997.89 ± 0.8 kg/m3. For the same compound, the mass density (15300 kPa) was 997.98 ± 0.8 kg/m3, the mass density (15325 kPa) was 998.14 ± 0.8 kg/m3 and the mass density (15350 kPa) was 998.19 ± 0.8 kg/m3. For the same compound, the mass density (15375 kPa) was 998.3 ± 0.8 kg/m3, the mass density (15400 kPa) was 998.38 ± 0.8 kg/m3 and the mass density (15425 kPa) was 998.5 ± 0.8 kg/m3. For the same compound, the mass density (15450 kPa) was 998.63 ± 0.8 kg/m3, the mass density (15475 kPa) was 998.71 ± 0.8 kg/m3 and the mass density (15500 kPa) was 998.79 ± 0.8 kg/m3. For the same compound, the mass density (15525 kPa) was 998.89 ± 0.8 kg/m3, the mass density (15550 kPa) was 999.03 ± 0.8 kg/m3 and the mass density (15575 kPa) was 999.11 ± 0.8 kg/m3. The mass density (15600 kPa) was 999.22 ± 0.8 kg/m3, the mass density (15625 kPa) was 999.34 ± 0.8 kg/m3 and the mass density (15650 kPa) was 999.41 ± 0.8 kg/m3. It also gave a mass density (15675 kPa) of 999.52 ± 0.8 kg/m3, a mass density (15700 kPa) of 999.63 ± 0.8 kg/m3 and a mass density (15725 kPa) of 999.76 ± 0.8 kg/m3. It also gave a mass density (15750 kPa) of 999.85 ± 0.8 kg/m3, a mass density (15775 kPa) of 999.93 ± 0.8 kg/m3 and a mass density (15800 kPa) of 1000.03 ± 0.8 kg/m3. For the same compound, the mass density (15825 kPa) was 1000.09 ± 0.8 kg/m3, the mass density (15850 kPa) was 1000.25 ± 0.8 kg/m3 and the mass density (15875 kPa) was 1000.33 ± 0.8 kg/m3. The mass density (15900 kPa) was 1000.44 ± 0.8 kg/m3, the mass density (15925 kPa) was 1000.5 ± 0.8 kg/m3 and the mass density (15950 kPa) was 1000.59 ± 0.8 kg/m3. For the same compound, the mass density (15975 kPa) was 1000.74 ± 0.8 kg/m3, the mass density (16000 kPa) was 1000.82 ± 0.8 kg/m3 and the mass density (16025 kPa) was 1000.92 ± 0.8 kg/m3. For the same compound, the mass density (16050 kPa) was 1001.03 ± 0.8 kg/m3, the mass density (16075 kPa) was 1001.14 ± 0.8 kg/m3 and the mass density (16100 kPa) was 1001.23 ± 0.8 kg/m3. It also gave a mass density (16125 kPa) of 1001.34 ± 0.8 kg/m3, a mass density (16150 kPa) of 1001.44 ± 0.8 kg/m3 and a mass density (16175 kPa) of 1001.55 ± 0.8 kg/m3. It also gave a mass density (16200 kPa) of 1001.64 ± 0.8 kg/m3, a mass density (16225 kPa) of 1001.73 ± 0.8 kg/m3 and a mass density (16250 kPa) of 1001.84 ± 0.8 kg/m3. It also gave a mass density (16275 kPa) of 1001.95 ± 0.8 kg/m3, a mass density (16300 kPa) of 1002.05 ± 0.8 kg/m3 and a mass density (16325 kPa) of 1002.16 ± 0.8 kg/m3. It also gave a mass density (16350 kPa) of 1002.26 ± 0.8 kg/m3, a mass density (16375 kPa) of 1002.35 ± 0.8 kg/m3 and a mass density (16400 kPa) of 1002.44 ± 0.8 kg/m3. It also gave a mass density (16425 kPa) of 1002.55 ± 0.8 kg/m3, a mass density (16450 kPa) of 1002.64 ± 0.8 kg/m3 and a mass density (16475 kPa) of 1002.73 ± 0.8 kg/m3. The mass density (16500 kPa) was 1002.82 ± 0.8 kg/m3, the mass density (16525 kPa) was 1002.92 ± 0.8 kg/m3 and the mass density (16550 kPa) was 1003.07 ± 0.8 kg/m3. The mass density (16575 kPa) was 1003.15 ± 0.8 kg/m3, the mass density (16600 kPa) was 1003.23 ± 0.8 kg/m3 and the mass density (16625 kPa) was 1003.31 ± 0.8 kg/m3. The mass density (16650 kPa) was 1003.43 ± 0.8 kg/m3, the mass density (16675 kPa) was 1003.55 ± 0.8 kg/m3 and the mass density (16700 kPa) was 1003.63 ± 0.8 kg/m3. It also gave a mass density (16725 kPa) of 1003.75 ± 0.8 kg/m3, a mass density (16750 kPa) of 1003.86 ± 0.8 kg/m3 and a mass density (16775 kPa) of 1003.93 ± 0.8 kg/m3. It also gave a mass density (16800 kPa) of 1004.01 ± 0.8 kg/m3, a mass density (16825 kPa) of 1004.09 ± 0.8 kg/m3 and a mass density (16850 kPa) of 1004.25 ± 0.8 kg/m3. For the same compound, the mass density (16875 kPa) was 1004.31 ± 0.8 kg/m3, the mass density (16900 kPa) was 1004.4 ± 0.8 kg/m3 and the mass density (16925 kPa) was 1004.53 ± 0.8 kg/m3. It also gave a mass density (16950 kPa) of 1004.6 ± 0.8 kg/m3, a mass density (16975 kPa) of 1004.73 ± 0.8 kg/m3 and a mass density (17000 kPa) of 1004.82 ± 0.8 kg/m3. The mass density (17025 kPa) was 1004.89 ± 0.8 kg/m3 and the mass density (17050 kPa) was 1005.04 ± 0.8 kg/m3.

Source: the NIST ThermoML archive (doi:10.1016/j.jct.2016.03.026)
